Biological target: GST tagged truncated human mutant G2019S LRRK2 (Homo sapiens (Human), UniProt Q5S007, G2019S)
Test: LRRK2 Km ATP LanthaScreen Assay
Assay type: biochemical
Settings: G2019S LRRK2, 134 μM ATP (Km ATP), mean values; for IC50: read-out: LRRK2 pIC50 (converted)
Summary of the method: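 Enzyme (GST-tagged, truncated) was preincubated with compound for 15 min at RT in 50 mM Tris pH 8.5, 10 mM MgCl2, 0.01% Brij-35, 1 mM EGTA, 2 mM DTT and 0.05 mM orthovanadate. Fluorescein-LRRKtide and 134 μM ATP (Km) were then added for 90 min. EDTA and Tb-anti-pERM antibody stopped the reaction; the TR-FRET 520/495 ratio gave 4-parameter IC50s, reported as mean pIC50.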

Chain of GST tagged truncated human mutant G2019S LRRK2 (Q5S007 970-2527 G2019S): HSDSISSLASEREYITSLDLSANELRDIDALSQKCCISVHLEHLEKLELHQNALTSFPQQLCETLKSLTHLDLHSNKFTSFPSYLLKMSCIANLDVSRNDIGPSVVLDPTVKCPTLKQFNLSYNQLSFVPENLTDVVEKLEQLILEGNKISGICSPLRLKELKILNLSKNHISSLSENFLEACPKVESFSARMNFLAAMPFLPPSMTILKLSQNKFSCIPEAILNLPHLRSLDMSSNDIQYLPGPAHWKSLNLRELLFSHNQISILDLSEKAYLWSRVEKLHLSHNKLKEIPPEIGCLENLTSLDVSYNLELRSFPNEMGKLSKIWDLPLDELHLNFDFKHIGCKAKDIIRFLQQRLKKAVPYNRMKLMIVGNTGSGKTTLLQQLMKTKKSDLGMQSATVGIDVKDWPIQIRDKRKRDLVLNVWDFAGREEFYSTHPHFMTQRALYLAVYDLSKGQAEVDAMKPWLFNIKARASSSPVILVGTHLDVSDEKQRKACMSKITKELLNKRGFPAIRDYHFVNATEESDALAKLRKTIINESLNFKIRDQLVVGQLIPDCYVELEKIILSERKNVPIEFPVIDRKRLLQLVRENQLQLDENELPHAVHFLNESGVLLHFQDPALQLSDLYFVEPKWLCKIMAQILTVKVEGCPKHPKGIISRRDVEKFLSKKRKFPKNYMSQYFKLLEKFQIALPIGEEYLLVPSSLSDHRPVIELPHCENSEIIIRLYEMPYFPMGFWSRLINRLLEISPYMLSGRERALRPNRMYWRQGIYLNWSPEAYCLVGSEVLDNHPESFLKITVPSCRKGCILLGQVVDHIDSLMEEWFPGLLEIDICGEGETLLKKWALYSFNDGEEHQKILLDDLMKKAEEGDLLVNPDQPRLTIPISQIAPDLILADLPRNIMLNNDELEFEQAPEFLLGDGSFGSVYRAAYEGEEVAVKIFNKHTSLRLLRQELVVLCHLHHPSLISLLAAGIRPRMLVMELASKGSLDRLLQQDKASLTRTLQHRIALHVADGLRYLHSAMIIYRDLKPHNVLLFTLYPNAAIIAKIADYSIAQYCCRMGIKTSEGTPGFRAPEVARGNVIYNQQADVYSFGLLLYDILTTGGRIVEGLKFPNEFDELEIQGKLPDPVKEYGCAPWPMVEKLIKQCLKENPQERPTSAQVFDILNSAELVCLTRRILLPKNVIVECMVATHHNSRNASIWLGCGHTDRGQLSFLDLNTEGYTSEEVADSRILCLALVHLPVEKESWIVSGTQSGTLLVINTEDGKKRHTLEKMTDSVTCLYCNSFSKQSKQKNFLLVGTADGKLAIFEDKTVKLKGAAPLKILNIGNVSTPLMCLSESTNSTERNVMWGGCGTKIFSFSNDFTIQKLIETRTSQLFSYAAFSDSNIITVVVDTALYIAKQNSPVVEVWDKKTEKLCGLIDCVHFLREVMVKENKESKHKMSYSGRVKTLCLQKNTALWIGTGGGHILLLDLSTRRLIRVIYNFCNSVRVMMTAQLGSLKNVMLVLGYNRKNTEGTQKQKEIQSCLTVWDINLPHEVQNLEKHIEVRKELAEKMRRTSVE

SMILES	LRRK2 pIC50	IC50 [nM]
Cn1ncc(Nc2ncc3cc(Cl)c([C@@H]4CCN([C@@]5(C)COC[C@H]5O)C[C@H]4F)cc3n2)c1C(F)(F)F (single isomer, unassigned) [Ex-4.253, (3S,4S)(3S,4S) or (3S,4S)(3R,4R) or (3R,4R)(3S,4S) or (3R,4R)(3R,4R) 4-[4-(6-chloro-2-{[1-methyl-5-(trifluoromethyl)-1H-pyrazol-4-yl]amino}quinazolin-7-yl)-3-fluoropiperidin-1-yl]-4-methyloxolan-3-ol]	>9.20	
FC(F)n1ncc(Nc2ncc3cc(Cl)c(C4CCN(C5COC5)CC4)cc3n2)c1Cl [Ex-8.2, 6-chloro-N-[5-chloro-1-(difluoromethyl)-1H-pyrazol-4-yl]-7-[1-(oxetan-3-yl)piperidin-4-yl]quinazolin-2-amine]	8.83	
F[C@H]1CN(C2COC2)C[C@@H]1c1cc2nc(Nc3cnn(C4CC4)c3Cl)ncc2cc1Cl (single isomer, unassigned) [Ex-4.41, (3S,4R) or (3R,4S) 6-chloro-N-(5-chloro-1-cyclopropyl-1H-pyrazol-4-yl)-7-[4-fluoro-1-(oxetan-3-yl)pyrrolidin-3-yl]quinazolin-2-amine]	7.31	
Cc1cc(Nc2ncc3cc(Cl)c([C@H]4CCN(C5COC5)C[C@@H]4F)cc3n2)sn1 (single isomer, unassigned) [Ex-4.51, (3S,4S) or (3R,4R) 6-chloro-7-[3-fluoro-1-(oxetan-3-yl)piperidin-4-yl]-N-(3-methyl-1,2-thiazol-5-yl)quinazolin-2-amine]	>9.20	
Cc1nsc(Nc2ncc3cc(Cl)c(C4CCN(C5CCOC5)CC4)cc3n2)c1Cl (single isomer, unassigned) [Ex-8.18, (S) or (R) 6-chloro-N-(4-chloro-3-methyl-1,2-thiazol-5-yl)-7-[1-(oxolan-3-yl)piperidin-4-yl]quinazolin-2-amine]		< 0.631
CN1CC[C@@H](c2cc3nc(Nc4cnn(C5CC5)c4Cl)ncc3cc2Cl)[C@H](F)C1 (single isomer, unassigned) [Ex-4.39, (3S,4S) or (3R,4R) 6-chloro-N-(5-chloro-1-cyclopropyl-1H-pyrazol-4-yl)-7-(3-fluoro-1-methylpiperidin-4-yl)quinazolin-2-amine]	>9.20	
Cc1cc2cnc(Nc3cnn(C4CC4(F)F)c3Cl)nc2cc1[C@@H]1CCN([C@@]2(C)COC[C@H]2O)C[C@H]1F (single isomer, unassigned) [Ex-4.147, (R)(3S,4S)(3S,4S) or (R)(3S,4S)(3R,4R) or (R)(3R,4R)(3S,4S) or (R)(3R,4R)(3R,4R) or (S)(3S,4S)(3S,4S) or (S)(3S,4S)(3R,4R) or (S)(3R,4R)(3S,4S) or (S)(3R,4R)(3R,4R) 4-[4-(2-{[5-chloro-1-(2,2-difluorocyclopropyl)-1H-pyrazol-4-yl]amino}-6-methylquinazolin-7-yl)-3-fluoropiperidin-1-yl]-4-methyloxolan-3-ol]	>9.20	
N#Cc1cc2cnc(Nc3cnn(C4CC4(F)F)c3Cl)nc2cc1[C@@H]1CCN(C2COC2)C[C@H]1F (single isomer, unassigned) [Ex-6.4, (R)(3S,4S) or (S)(3S,4S) or (R)(3R,4R) or (S)(3R,4R) 2-((5-chloro-1-(2,2-difluorocyclopropyl)-1H-pyrazol-4-yl)amino)-7-(3-fluoro-1-(oxetan-3-yl)piperidin-4-yl)quinazoline-6-carbonitrile]	9.18	
N#CC1COCC1N1CCC(c2cc3nc(Nc4cnn(C5CC5)c4Cl)ncc3cc2Cl)CC1 (single isomer, unassigned) [Ex-4.102, (3S,4S) or (3R,4R) or (3S,4R) or (3R,4S) 4-(4-(6-chloro-2-((5-chloro-1-cyclopropyl-1H-pyrazol-4-yl)amino)quinazolin-7-yl)piperidin-1-yl)tetrahydrofuran-3-carbonitrile]	>9.20	
CCN1CC[C@@H](c2cc3nc(Nc4cnn(CC(C)(C)O)c4Cl)ncc3cc2Cl)[C@H](F)C1 (single isomer, unassigned) [Ex-4.4, (3S,4S) or (3R,4R) 1-(5-chloro-4-((6-chloro-7-(1-ethyl-3-fluoropiperidin-4-yl)quinazolin-2-yl)amino)-1H-pyrazol-1-yl)-2-methylpropan-2-ol]	8.88	
O[C@H]1COC[C@H]1N1CC[C@H](c2cc3nc(Nc4cnn(C56CC(C5)C6)c4Cl)ncc3cc2Cl)[C@@H](F)C1 (single isomer, unassigned) [Ex-8.37, (3S,4S)(3S,4S) or (3S,4S)(3R,4R) or (3R,4R)(3S,4S) or (3R,4R)(3R,4R) 4-[4-(2-{[1-(bicyclo[1.1.1]pentan-1-yl)-5-chloro-1H-pyrazol-4-yl]amino}-6-chloroquinazolin-7-yl)-3-fluoropiperidin-1-yl]oxolan-3-ol]	>9.20	
Cc1cc(Nc2ncc3cc(C)c([C@H]4CCN([C@@H]5COC[C@@H]5O)C[C@@H]4F)cc3n2)n(C)n1 (single isomer, unassigned) [Ex-5.11, (3S,4S)(3S,4S) or (3S,4S)(3R,4R) or (3R,4R)(3S,4S) or (3R,4R)(3R,4R) 4-(4-{2-[(1,3-dimethyl-1H-pyrazol-5-yl)amino]-6-methylquinazolin-7-yl}-3-fluoropiperidin-1-yl)oxolan-3-ol]	8.57	
Cc1c(Nc2ncc3cc(Cl)c(C4CCN(CC(O)CN5CCOC5=O)CC4)cc3n2)cnn1C1CC1 (single isomer, unassigned) [Ex-4.221, (S) or (R) 3-[3-(4-{6-chloro-2-[(1-cyclopropyl-5-methyl-1H-pyrazol-4-yl)amino]quinazolin-7-yl}piperidin-1-yl)-2-hydroxypropyl]-1,3-oxazolidin-2-one]		< 0.631
O[C@@H]1COC[C@@H]1N1CCC(c2cc3nc(Nc4cnn(C56CC(C5)C6)c4)ncc3cc2Cl)CC1 (single isomer, unassigned) [Ex-4.152, (3S,4S) or (3R,4R) 4-[4-(2-{[1-(bicyclo[1.1.1]pentan-1-yl)-1H-pyrazol-4-yl]amino}-6-chloroquinazolin-7-yl)piperidin-1-yl]oxolan-3-ol]	>9.20	
Cc1c(Nc2ncc3cc(Cl)c(C4CCN(C5COC5)CC4)cc3n2)cnn1C(C)(C)C#N [Ex-2.19, 2-[4-({6-chloro-7-[1-(oxetan-3-yl)piperidin-4-yl]quinazolin-2-yl}amino)-5-methyl-1H-pyrazol-1-yl]-2-methylpropanenitrile]	>9.20	
CO[C@H]1COC[C@H]1N1CCC(c2cc3nc(Nc4cnn(C5CC5)c4C)ncc3cc2Cl)CC1 (single isomer, unassigned) [Ex-7.5, (3S,4S) or (3R,4R) 6-chloro-N-(1-cyclopropyl-5-methyl-1H-pyrazol-4-yl)-7-[1-(4-methoxyoxolan-3-yl)piperidin-4-yl]quinazolin-2-amine]	>9.20	
Cc1c(Nc2ncc3cc(Cl)c([C@@H]4CCN([C@@H]5COC[C@@H]5O)C[C@H]4F)cc3n2)cnn1C1CC1(F)F (single isomer, unassigned) [Ex-4.181, (R)(3S,4S)(3S,4S) or (R)(3S,4S)(3R,4R) or (R)(3R,4R)(3S,4S) or (R)(3R,4R)(3R,4R) or (S)(3S,4S)(3S,4S) or (S)(3S,4S)(3R,4R) or (S)(3R,4R)(3S,4S) or (S)(3R,4R)(3R,4R) 4-(4-(6-chloro-2-((1-(2,2-difluorocyclopropyl)-5-methyl-1H-pyrazol-4-yl)amino)quinazolin-7-yl)-3-fluoropiperidin-1-yl)tetrahydrofuran-3-olyl]amino}quinazolin-7-yl)-3-fluoropiperidin-1-yl]oxolan-3-ol]	>9.20	
CC1(n2ncc(Nc3ncc4cc(Cl)c([C@H]5CCN(C6COC6)C[C@@H]5F)cc4n3)c2Cl)CC1 (single isomer, unassigned) [Ex-4.28, (3S,4S) or (3R,4R) 6-chloro-N-[5-chloro-1-(1-methylcyclopropyl)-1H-pyrazol-4-yl]-7-[3-fluoro-1-(oxetan-3-yl)piperidin-4-yl]quinazolin-2-amine]	>9.20	
Cc1cc(Nc2ncc3cc(C)c(C4CCN([C@]5(C)COC[C@@H]5O)CC4)cc3n2)n(C)n1 (single isomer, unassigned) [Ex-5.13, (3S,4S)(3S,4S) or (3S,4S)(3R,4R) or (3R,4R)(3S,4S) or (3R,4R)(3R,4R) 4-(4-{2-[(1,3-dimethyl-1H-pyrazol-5-yl)amino]-6-methylquinazolin-7-yl}piperidin-1-yl)-4-methyloxolan-3-ol]	9.00	
CCn1ncc(Nc2ncc3cc(Cl)c(C4CC45CC5)cc3n2)c1C (single isomer, unassigned) [Ex-1.2, (S) or (R) 6-chloro-N-(1-ethyl-5-methyl-1H-pyrazol-4-yl)-7-(spiro[2.2]pentan-1-yl)quinazolin-2-amine]		186
CC1(n2ncc(Nc3ncc4cc(Cl)c(C5CCN(CCC#N)CC5)cc4n3)c2Cl)CC1 [Ex-8.13, 3-[4-(6-chloro-2-{[5-chloro-1-(1-methylcyclopropyl)-1H-pyrazol-4-yl]amino}quinazolin-7-yl)piperidin-1-yl]propanenitrile]	>9.20	
Cc1c(Nc2ncc3cc(Cl)c(C4CCN(C5CC[C@@H]5O)CC4)cc3n2)cnn1C1CC1 (single isomer, unassigned) [Ex-1.6, (1R,2S) or (1R,2R) or (1S,2S) or (1S,2R) 2-(4-(6-chloro-2-((1-cyclopropyl-5-methyl-1H-pyrazol-4-yl)amino)quinazolin-7-yl)piperidin-1-yl)cyclobutan-1-ol]	>9.20	
CC1(N2CC[C@@H](c3cc4nc(Nc5cnn(C6CC6)c5Cl)ncc4cc3Cl)[C@H](F)C2)COC1 (single isomer, unassigned) [Ex-4.99, (3S,4S) or (3R,4R) 6-chloro-N-(5-chloro-1-cyclopropyl-1H-pyrazol-4-yl)-7-[3-fluoro-1-(3-methyloxetan-3-yl)piperidin-4-yl]quinazolin-2-amine]	8.01	

— patent US12540131B2 (Merck Sharp & Dohme LLC, priority 2019, dated 2026)
